The target of one series is T1, mPPARalphaLBD (Mus musculus, UniProt P23204).
T1 construct: expressed in transfected cells
T1 sequence (P23204 239-466 limits assumed): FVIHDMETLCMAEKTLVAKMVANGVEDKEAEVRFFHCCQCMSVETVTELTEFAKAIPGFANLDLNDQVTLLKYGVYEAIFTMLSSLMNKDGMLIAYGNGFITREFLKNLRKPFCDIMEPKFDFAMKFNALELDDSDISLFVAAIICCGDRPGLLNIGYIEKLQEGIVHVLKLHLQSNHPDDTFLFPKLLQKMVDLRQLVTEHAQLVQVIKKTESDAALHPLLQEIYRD
As to the kind of experiment: PPARalpha transactivation assay. Format: cell-based. On the procedure:
This example describes a transactivation assay for determining PPARalpha modulating activity.
DPD and other ligands are tested for their ability to transactivate PPARalpha essentially as described in Example 22.

The next series deals with T2, PPARgamma (h) (Homo sapiens, UniProt P37231).
T2 construct: host or cells: E. coli
T2 sequence (P37231 1-505): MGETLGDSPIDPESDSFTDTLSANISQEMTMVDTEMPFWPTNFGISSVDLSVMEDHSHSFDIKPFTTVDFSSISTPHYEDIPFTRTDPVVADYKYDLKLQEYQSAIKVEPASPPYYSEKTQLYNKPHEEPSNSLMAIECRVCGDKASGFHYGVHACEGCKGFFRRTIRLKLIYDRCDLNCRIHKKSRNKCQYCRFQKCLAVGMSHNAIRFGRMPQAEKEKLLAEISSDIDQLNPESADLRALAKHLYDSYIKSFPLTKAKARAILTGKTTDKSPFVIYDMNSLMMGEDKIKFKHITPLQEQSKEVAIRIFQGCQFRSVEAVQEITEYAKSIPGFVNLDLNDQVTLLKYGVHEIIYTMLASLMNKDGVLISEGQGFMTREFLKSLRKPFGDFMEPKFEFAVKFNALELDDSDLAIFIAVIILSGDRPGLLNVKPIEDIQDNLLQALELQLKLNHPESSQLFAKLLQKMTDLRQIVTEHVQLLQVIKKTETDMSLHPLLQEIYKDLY
As to the kind of experiment: Human recombinant (E. coli) PPARgamma (h) binding assay. The following applies: @ 10 μM. On the procedure:
The results are expressed as a percent of control specific binding ((measured specific binding/control specific binding)×100) obtained in the presence of the test compounds. The IC50 values (concentration causing a half-maximal inhibition of control specific binding) and Hill coefficients (nH) were determined by non-linear regression analysis of the competition curves generated with mean replicate values using Hill equation curve fitting (Y=D+[(A D)/(1+(C/C50)nH)], where Y=specific binding, D=minimum specific binding, A=maximum specific binding, C=compound concentration, C50=IC50, and nH=slope factor). This analysis was performed using a software developed at Cerep (Hill software) and validated by comparison with data generated by the commercial software SigmaPlot® 4.0 for Windows® (© 1997 by SPSS Inc.). The inhibition constants (Ki) were calculated using the Cheng Prusoff equation (Ki=IC50/(1+(L/KD)), where L=concentration of radioligand in the assay, and KD=affinity of the radioligand for the receptor).

The subject of another series is KKA^y mice. As to the kind of experiment: Glucose lowering effect in KKAy mouse model. Format: in vivo. The following applies: 5 mg/kg BID oral gavage 14 days, Day 14, average ± S.E.M., 5 mg/kg. Here is the method:
52 male KKA^y mice were obtained commercially (e.g., from Clea Japan) at an age of 6 weeks and put on a high fat diet upon arrival. Individual mice were housed in IVC Type II cages during both the acclimatization and the experimental phase. Both food (high fat diet) and water were supplied ad libitum.
Mice were randomized into treatment groups according to their 4-h fasting blood glucose.
4 hours after the last administration, non-fasting conditions.
Blood was collected into heparin containing glass capillaries which were subsequently centrifuged in a “Haematokrit 24” centrifuge (Hettich) at 15′200×g for 10 min at room temperature to obtain the hematocrit value.
The following serum parameters were determined on a COBAS INTEGRA 800 auto analyzer (Roche Diagnostics, Switzerland) using the reagents and protocols provided by the supplier.
All measurements were made on Day 14 of administration, except for the food intake and body weight measurements that were made on Day 12.

The test system of the next series is MEFs / 3T3-L1. As to the kind of experiment: Adipocyte differentiation induction assay (Oil Red O staining). Format: cell-based, mouse. The arrangement: key to Adip. (adipocyte differentiation): 0: similar results to DPD; −1: even less adipocyte differentiation; +1: more adipocyte differentiation (both relative to DPD). The following applies: for Adip. (adipocyte differentiation): relative to DPD (SN1). On the procedure: This example describes an assay for determining adipocyte differention. Compounds are tested to see whether they induce adipocyte differentiation and also to see whether they inhibit adipocyte differention.
MEFs were grown in AmnioMax basal medium (Gibco) supplemented with 7.5% Amniomax supplement C-100 (Gibco), 7.5% Fetal Bovine Serum (FBS), 2 mM Glutamine, 62.5 μg/ml penicillin and 100 μg/ml Streptomycin (growth medium). At confluence, MEFs were induced to differentiation in growth medium with the addition of 1 μM dexamethasone (Sigma) 0.5 mM isobutylmethylxanthine (Sigma), 5 μg/ml insulin (Sigma) and 10 μM test compound dissolved in DMSO or DMSO alone. Medium was subsequently renewed every 48 hrs with growth media supplemented with 5 μg/ml Insulin and ligand or DMSO.
Briefly, to test compounds as inducers of adipocyte differentiation, 3T3-L1 are grown to confluence in DMEM with 10% Calf serum (CS), typically in 24 well dishes. At 2 days post confluence (day 0), cells are induced to differentiate with DMEM supplemented with 10% fetal bovine serum (FBS), 1 μM dexamethasone and the test compound (01, 1 and 10 μM). BRL49653 (1.0 μM dissolved in 100% DMSO) is used as a positive control. After 48 h, the cells are re-fed with DMEM containing 10% FBS supplemented with the test compound or the positive control. From day 4, cells are grown in DMEM with 10% FBS and are changed every second day until day 8. At day 8, cells are stained with Oil Red O as described below.
Cells cultured as described above are used for Oil Red staining. Dishes are washed in PBS and cells were fixed in 3.7% paraformaldehyde for 1 h and stained with oil red O as described in (Hansen et al 1999). Oil red O solution stock solution is prepared by dissolving 0.5 g of Oil Red O (Sigma) in 100 mL of isopropanol. Oil re 0 working solution is prepared by diluting a stock solution with water (6:4) followed by filtration.
Table II summarizes results obtained with different analogs of DPD (SN1), “0” representing similar results to DPD, “−1” representing even less adipocyte differentiation, “+1” representing more adipocyte differentiation (both relative to DPD) and “−” meaning not assayed.

The next series concerns the target T3, Gal4-PPARgammaLBD (Homo sapiens, UniProt P37231).
T3 construct: expressed in transfected cells; host or cells: mouse embryonic fibroblasts (MEFs) or ME3 cells
T3 sequence (P37231 204-505): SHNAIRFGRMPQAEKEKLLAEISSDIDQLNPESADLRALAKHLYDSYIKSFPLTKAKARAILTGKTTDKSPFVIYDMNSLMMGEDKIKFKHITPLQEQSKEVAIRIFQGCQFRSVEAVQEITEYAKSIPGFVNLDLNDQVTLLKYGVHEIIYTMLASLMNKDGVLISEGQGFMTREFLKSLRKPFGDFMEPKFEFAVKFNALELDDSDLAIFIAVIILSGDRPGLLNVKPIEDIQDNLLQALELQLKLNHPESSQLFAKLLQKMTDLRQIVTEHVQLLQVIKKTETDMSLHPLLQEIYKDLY
As to the kind of experiment: PPARgamma transactivation assay (Gal4-PPARgammaLBD, UASx4-TK-luc reporter). Format: cell-based. An excerpt:
This is an example of a transactivation assay for determining PPAR gamma modulating activity.
The UASx-4-TK-luc reporter construct (where UAS refers to “upstream activator sequence”) contains four Gal4-responsive elements. The plasmid Gal4-PPARgammaLBD encodes a Gal4-DBD-PPARgamma-LBD fusion protein (i.e. the DNA-binding domain, DBD, of Gal4 fused to the ligand-binding domain, LBD, of PPARgamma) capable of transactivating the UASx-4-TK-luc reporter plasmid by binding to the UAS. The CMV-beta-galactosidase plasmid (where CMV is cytomegalovirus) is used for normalization of experimental values.
The cells were replated, typically in 24 well plates, so that at the time of transfection the cells are 50-70% confluent.
Briefly, per well in a 24 well plate, UASx4TKIuc (0.2 μg) Gal4-PPARgammaLBD (or pM-hPPARgamma-LBD; 0.1 μg) and CMV-beta-galactosidase (0.05 μg) in 30 μL DMEM (free of serum and antibiotics) is mixed with 30 μL DMEM (free of serum and antibiotics) containing 1 μL metafectenein. The mixture is incubated at room temperature for 20 min to allow formation of nucleic acid-lipid complexes and then approximately 60 μL is added to each well containing the 50-60% confluent cells. […] Cells were harvested after 12-24 hours and luciferase and beta-galactosidase activities were measured according to standard protocols.
“−” means that testing was not performed.

As to `CC(C)(Sc1ccc(CCN(CCCCC2CCCCC2)C(=O)NC2CCCCC2)cc1)C(=O)O` [GW7647, reference compound], on mPPARalphaLBD, the “increase in PPARalpha transactivation” value is “over 2 fold”. Turning to `COc1ccc(C(=O)NCc2cccnc2)cc1C(=O)NCc1cccnc1` [Picotamide, reference compound], the “PPARgamma binding @ 10 μM” value on PPARgamma (h) was “no binding”.

Take `CN(CCOc1ccc(CC2SC(=O)NC2=O)cc1)c1ccccn1` (centres unmarked) [Rosiglitazone, rosiglitazone, reference compound]: the Heart weight result with KKA^y mice is “increased”. Turning to `O=C(O)CC/C=C\C[C@@H]1COC(c2coc3ccc(Cl)cc3c2=O)O[C@@H]1c1ccccc1O` (some centres unmarked) [compound 13], in the series on MEFs / 3T3-L1, the “adipocyte differentiation (summary in words)” value is reported as “low or no adipocyte differentiation” and the “Adip. (adipocyte differentiation)” value is −1. The “PPARgamma activity (summary in words)” value at Gal4-PPARgammaLBD is reported as “higher potency”.

With `COc1ccccc1[C@H]1OC(C)(C)OC[C@H]1C/C=C\CCCCC(=O)O` [compound 37], the “Adip. (adipocyte differentiation)” value in the series with MEFs / 3T3-L1 was determined as 0. Also, the “PPAR (PPARgamma activating activity)” value at Gal4-PPARgammaLBD (level of activity relative to 10 μM DPD (SN1)) is reported as “Inactive”.
